Key:
[1] = Water content of sialic acid powders (Table 1, comparison of properties); type: physicochemical; conditions: for Water content: Table 1
[2] = Time for complete dissolution in methanol suspension with Dowex 50; type: physicochemical
Method: A suspension of 10 g of Dowex 50 (trademark, manufactured by Dow Chemical; H+-type, 100-200 mesh, washed with hot methanol) in 100 ml of methanol was prepared. 10 g of Amorphous Powder 1--1, Needles 1--1, or Prisms 1--1 prepared in Example 1 was each charged to the suspension at 25° C. while vigorously stirring. While continuing the stirring at 25° C., the mixture was sampled from time to time to measure the time required for the sialic acids to be dissolved completely to form a clear solution, the degree of reaction, and the final reaction yield. The reaction yield was calculated by HPLC (HPX-87H column, trademark, manufactured by Bio Rad Co.).

[3] = Relationship between freezing rate and properties of the freeze-dried powder (degree of crystallization, water content; Table 2); type: physicochemical; conditions: 40% by weight aqueous solution
Method: Relationship between the freezing rate of a sialic acid aqueous solution and properties of the ultimate product was studied. 40% by weight aqueous solution of sialic acids was used and frozen for different periods of time using liquid nitrogen, a cooling shelf, and a freezer, and freeze-dried for 4 days. The degree of crystallization and the water content were measured.

[4] = Solubility in water and organic solvents (statement)
[5] = 10 g in 100 ml methanol with 10 g Dowex 50 (H+), 25° C., stirring
[6] = time for freezing 1 minute or shorter
[7] = time for freezing 5 minute or shorter
[8] = time for freezing 10 minute or shorter
[9] = time for freezing 30 minute or shorter
[10] = time for freezing 1 hour or shorter
[11] = time for freezing 3 hours or shorter

With `CC(=O)N[C@H]1[C@H]([C@H](O)[C@H](O)CO)OC(O)(C(=O)O)C[C@@H]1O` (some centres unmarked) [Amorphous Powder 1-1, sialic acid] the Water content [1] was 2.2%, the “Time required for complete dissolution” value [2, 5] was 6 min and the “Time required for complete dissolution (in words)” value [2, 5] was “dissolved fastest”.

With `CC(=O)N[C@H]1[C@H]([C@H](O)[C@H](O)CO)OC(O)(C(=O)O)C[C@@H]1O` (some centres unmarked) [Needles 1-1, sialic acid] the Water content [1] was 2.1% and the “Time required for complete dissolution” value [2, 5] was 27 min.

For `CC(=O)N[C@H]1[C@H]([C@H](O)[C@H](O)CO)OC(O)(C(=O)O)C[C@@H]1O` (some centres unmarked) [Prisms 1-1, sialic acid], the Water content [1] was 10.9%, the “Crystal water contained in the powder” value ([1]; stated in discussion of Table 3) was “about 10%” and the “Complete dissolution after 5 hours (in words)” value ([2]; methanol with Dowex 50, 25° C., 5 hours) was “did not completely dissolved”.

With `CC(=O)N[C@H]1[C@H]([C@H](O)[C@H](O)CO)OC(O)(C(=O)O)C[C@@H]1O` (some centres unmarked) [freeze-dried powder, sialic acid] the Crystallization degree [3, 6] was 0%, the Water content [3, 6] was 1.1-1.7% and the Crystallization degree [3, 7] was > 0.1%. The Water content [3, 7] was 1.2-1.9%, the Crystallization degree [3, 8] was 0.2-0.4% and the Water content [3, 8] was 1.4-2.1%. The Crystallization degree [3, 9] was 1.8-2.3%, the Water content [3, 9] was 2.4-3.6% and the Crystallization degree [3, 10] was 9.8-15.1%. The Water content [3, 10] was 3.9-4.8%, the Crystallization degree [3, 11] was 26-35% and the Water content [3, 11] was 5.1-6.2%.

In the case of `CC(=O)N[C@H]1[C@H]([C@H](O)[C@H](O)CO)OC(O)(C(=O)O)C[C@@H]1O` (some centres unmarked) [sialic acid], the “Water content (in words)” value ([1]; compared with needles) is reported as “very close to those of needles”, the “Solubility in organic solvents and reactivity (in words)” value ([4]; compared with needles) is reported as “superiority to such sialic acid needles, in terms of solubility in organic solvents and the reactivity” and the “Solubility in water (in words)” value ([4]; compared with needles and prisms) is reported as “more excellent in its solubility in water than both the needles and the prisms”.
